# According to PubChem BioAssay AID1919000 (Molecular Pharmacology Branch, DTP, NCI, 2023):
# Values joined by “and” are separate entries in the source; they are usually repeats but may differ in a detail not shown here. Equal entries are not always repeated.
# Tested on: 653999-131-R-J2-PDC complex spheroids, growth % test/control
# Assay: Anticancer human tumor 653999-131-R-J2-PDC patient-derived lung adenocarcinoma cell line growth inhibition [AhR]
# Conditions: for viability, T/C: stronger effect = lower value
# Source text: Multicellular complex tumor spheroid response to aryl hydrocarbon receptor antagonists in combination with a variety of drugs and investigational agents in selected tumor cell lines
# The current study was undertaken to assess response to aryl hydrocarbon receptor antagonists in combination with standard-of-care drugs and investigational agents in solid tumor complex spheroid models. Complex spheroids include a stromal component modeled by human endothelial cells (HUVEC) and fibroblasts modeled by human mesenchymal stem cells (MSCs). The concentration ranges selected for each drug and investigational agent were based upon clinically achievable concentrations if the clinical Cmax of the agent was known.
# Compounds. The drugs and investigational agents: BAY 2416964 (NSC825713), GNF351 (NSC835774), CH-223191 (NSC835775), CPI-455 (NSC825282), aza-TdCyd (NSC777586), decitabine (NSC127716), belinostat (NSC758774), entinostat (NSC756642), pevonedistat (NSC761192), tazemetostat (NSC777109), talazoparib (NSC765396), olaparib (NSC753686), selinexor (NSC780203), nedisertib (M3814, NSC802822), bortezomib (NSC756655), venetoclax (NSC766270), doxorubicin (NSC123127), elimusertib (BAY189344, NSC800525), ceralasertib (AZD6738, NSC777638), TAK-243 (NSC785004), alisertib (NSC759677), etoposide (NSC141540), topotecan (NSC609699), eribulin (NSC707389), gemcitabine (NSC613327), carboplatin (NSC241240), cisplatin (NSC119875), and SN-38 (NSC673596) were obtained from the National Cancer Institute (NCI) Developmental Therapeutics Program Chemical Repository (32). The FDA-approved anticancer drug set is available from the Developmental Therapeutics Program at https://dtp.cancer.gov/organization/dscb/obtaining/available plates.htm. […] The stock solutions were prepared in dimethyl sulfoxide (DMSO, Sigma-Aldrich, St. Louis, MO, cat. D2650), except for the platinum compounds which were prepared in saline (Quality Biological, Gaithersburg, MD, cat. 114-055-101), at 800-fold the tested concentration and stored at -70 degrees C prior to their use. All drugs and investigational agents were tested over a range starting from a high concentration at or near the clinical Cmax and decreasing in half-log increments. If the clinical Cmax for an agent had not been determined, the highest concentration tested was 10 microM (Table 1).
# Cell Culture. All cells were maintained in an incubator at 37 degrees C and 5% CO2 with 95% humidity. The PDC lines were cultured according to standard operating procedures established by the NCI PDMR (https://pdmr.cancer.gov). Briefly, all PDCs were thawed and cultured in Matrigel-coated flasks prepared with a working solution of 1X Ham's F-12 nutrient mix, without supplementation (Invitrogen, Waltham, MA, cat. 11765054), 100 U/mL penicillin-streptomycin (Invitrogen, cat. 15140122), and 2.5% Matrigel (Corning Inc., Corning, NY, cat. 354248) for the first three passages. All PDCs were cultured in complete DMEM/F-12 media containing advanced DMEM/F-12 (Invitrogen, cat. 12634028), 4.9% defined fetal bovine serum, heat inactivated (HyClone Laboratories Inc., Logan, UT, cat. SH30070.03HI), 389 ng/mL hydrocortisone (Sigma-Aldrich, cat. H4001), 9.7 ng/mL human EGF recombinant protein (Invitrogen, cat. PHG0313), 23.4 microg/mL adenine (Sigma-Aldrich, cat. A2786), 97.3 U/mL penicillin-streptomycin (Invitrogen, cat. 15140122), 1.9 mM L-glutamine (Invitrogen, cat. 25030081), and 9.7 microM Y-27632 dihydrochloride (Tocris Bioscience, Bristol, United Kingdom, cat. 1254). The PDCs were cultured in complete DMEM/F12 media without 10 microM Y-27632 dihydrochloride for at least two passages prior to the screen. The established cell lines NCI-H1341 and […] were cultured in DMEM/F-12, HEPES (Invitrogen, cat. 11330032), 5% defined fetal bovine serum (HyClone Laboratories Inc., cat. SH30070.03), ITS premix universal culture supplement [insulin (5 microg/mL), transferrin (5 microg/mL), and selenious acid (5 ng/mL)] […]
# 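Also: spheroids exposed to agents for seven days.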
Compound,IC50 (curve of compound),"viability, T/C (compound 0.0316 µM)","viability, T/C (compound 0.1 µM)","viability, T/C (compound 0.316 µM)","viability, T/C (compound 1 µM)","viability, T/C (compound 3.16 µM)","viability, T/C (compound 10 µM)",other results
CC(C)CC(NC(=O)C(Cc1ccccc1)NC(=O)c1cnccn1)B(O)O (centres undefined),22.4 nM and 21.1 nM and 12.4 nM,–,–,–,–,–,–,"viability, T/C (compound 0.000949 µM): 112% and 106% and 110%; viability, T/C (compound 0.003 µM): 118% and 114% and 124%; viability, T/C (compound 0.00949 µM): 107% and 96.5% and 60.7%; viability, T/C (compound 0.03 µM): 30.4% and 28.9% and 21.5%; viability, T/C (compound 0.0949 µM): 11.3% and 14.9% and 9.51%; viability, T/C (compound 0.3 µM): 3.46% and 4.18% and 3.51%"
CC(CO)NC(=O)c1cc(-c2ccc(Cl)cc2)nn(-c2cnn(C)c2)c1=O (centres undefined),–,–,93.8% [middle of 20 runs],–,–,–,–,"IC50 (compound alone, run of 05/31/2022): > 10000 nM"
CC1(C)CCC(CN2CCN(c3ccc(C(=O)NS(=O)(=O)c4ccc(NCC5CCOCC5)c([N+](=O)[O-])c4)c(Oc4cnc5[nH]ccc5c4)c3)CC2)=C(c2ccc(Cl)cc2)C1,> 10000 nM,108% (2×) and 103%,97.3% and 103% and 116%,98% and 88.8% and 104%,105% and 102% and 104%,106% and 99.7% and 108%,85.9% and 58.9% and 74.9%,–
CC1COCCN1c1cc(-c2ccnn2C)c2ccnc(-c3ccn[nH]3)c2n1 (centres undefined),141 nM and 142 nM and 194 nM,77.3% and 77.9% and 90.3%,58.7% and 58.6% and 62.5%,32.9% and 34% and 41.3%,24% and 30.5% and 29.1%,–,–,"viability, T/C (compound 0.00316 µM): 97.3% and 102% and 106%; viability, T/C (compound 0.01 µM): 92.7% and 98.5% and 104%"
CC1COCCN1c1cc(C2(S(C)(=N)=O)CC2)nc(-c2ccnc3[nH]ccc23)n1 (centres undefined),> 10000 nM and 8160 nM,109% and 102% and 99.7%,110% and 106% and 102%,104% and 101% and 107%,101% and 98.8% and 94.3%,87.2% and 70.5% and 81.3%,50.6% and 45.6% and 57.8%,–
CC[C@@]1(O)C(=O)OCc2c1cc1n(c2=O)Cc2cc3c(CN(C)C)c(O)ccc3nc2-1,84.8 nM and 51.8 nM and 86.6 nM,69.5% and 61.3% and 63.9%,44.3% and 36.5% and 48%,–,–,–,–,"viability, T/C (compound 0.000316 µM): 118% and 95.5% and 101%; viability, T/C (compound 0.001 µM): 100% and 95.1% and 108%; viability, T/C (compound 0.00316 µM): 91.8% and 99.8% and 102%; viability, T/C (compound 0.01 µM): 80.7% and 79.8% and 91.8%"
CCc1c2c(nc3ccc(O)cc13)-c1cc3c(c(=O)n1C2)COC(=O)[C@]3(O)CC,14.6 nM and 22.1 nM and 9.27 nM,–,–,–,–,–,–,"viability, T/C (compound 0.000949 µM): 79% and 89.9% and 76.4%; viability, T/C (compound 0.003 µM): 75.3% and 80.9% and 76.6%; viability, T/C (compound 0.00949 µM): 54.4% and 59.1% and 45.1%; viability, T/C (compound 0.03 µM): 38.8% and 44.1% and 33.3%; viability, T/C (compound 0.0949 µM): 29.4% and 35.4% and 27.7%; viability, T/C (compound 0.3 µM): 20.6% and 19.6% and 16.8%"
COc1cc(C2c3cc4c(cc3C(OC3OC5COC(C)OC5C(O)C3O)C3COC(=O)C23)OCO4)cc(OC)c1O (centres undefined),924 nM and 1560 nM and 1450 nM,99.2% and 89.8% and 87.8%,79.3% and 77.8% and 77.9%,61.9% and 67.7% and 69.8%,49.1% and 55.2% and 50.4%,39.3% and 43.3% and 43.5%,29.4% and 25.6% and 27.5%,–
COc1ccc([C@@H](O)c2cc(-c3ncnc4cc(N5CCOCC5)ccc34)c(F)cc2Cl)nn1,7570 nM and 7280 nM and 7560 nM,112% and 97% and 106%,105% and 114% and 103%,100% and 91.4% and 81.3%,90.5% and 90.1% and 83.8%,66.2% and 61.9% and 69.9%,44.8% and 45.4% and 42.3%,–

# Second part, led by results:
IC50 (curve of compound),Compound,"viability, T/C (compound 0.0316 µM)","viability, T/C (compound 0.1 µM)","viability, T/C (compound 0.316 µM)","viability, T/C (compound 1 µM)","viability, T/C (compound 3.16 µM)","viability, T/C (compound 10 µM)",other results
> 10000 nM,CC(C)c1c(-c2ccccc2)nc2c(C#N)c[nH]n2c1=O,109% and 93.9% and 110%,112% (2×) and 109%,96.8% and 108% and 104%,90.2% and 116% and 109%,103% and 101% (2×),96.2% (2×) and 103%,–
> 3000 nM,CCN(c1cc(-c2ccc(CN3CCOCC3)cc2)cc(C(=O)NCc2c(C)cc(C)[nH]c2=O)c1C)C1CCOCC1,–,–,–,–,–,–,"viability, T/C (compound 0.00949 µM): 105% and 101% and 115%; viability, T/C (compound 0.03 µM): 104% and 95.7% and 106%; viability, T/C (compound 0.0949 µM): 114% and 88.5% and 110%; viability, T/C (compound 0.3 µM): 102% and 89.3% and 100%; viability, T/C (compound 0.949 µM): 108% and 98.8% and 96.9%; viability, T/C (compound 3 µM): 94.6% and 104% and 96.3%"
> 10000 nM,COc1cc(Nc2ncc3c(n2)-c2ccc(Cl)cc2C(c2c(F)cccc2OC)=NC3)ccc1C(=O)O,93.1% and 93.5% and 98%,73% and 85% and 75.2%,75.1% and 70.2% and 68.6%,71.5% and 66.9% and 67.2%,66.2% and 68.2% and 70.6%,60.7% and 64.3% and 65.4%,–
